Drawing on PubChem BioAssay AID1259246 (Broad Institute, 2017), this text covers activity change, negative = inhibition for 53 molecules.

Inconclusive results are not listed. Activity calls are given as the source filed them.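 Rule for the calls: active = valid dose-response fit whose half-maximal growth-inhibiting concentration is at or below a set limit above the top tested dose; inconclusive = flat fit with effect between 30 and 70%, or poor fit; inactive = half-maximal concentration above a set limit.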

The first experiment is described as follows: antibacterial activity against Clostridioides difficile – 10-point retest, dose response (AID 1259246). Conditions: Clostridioides difficile clinical isolate growth, OD600, 24 h; at 60 µM (top of the series).
For the molecule `COC(=O)[C@@H]1[C@@H](CO)[C@@H]2Cn3c(ccc(-c4cccc(F)c4)c3=O)[C@@H]2N1C(C)=O`, the activity change, negative = inhibition was 9.82% (inactive).

As to `CCCNC(=O)C[C@@H]1CC[C@H]2[C@H](COc3ccc(NC(=O)c4cccc(Cl)c4)cc3C(=O)N2C)O1`, the activity change, negative = inhibition was 10.3% (inactive).

On to `COc1ccccc1-c1ccc2c(c1)O[C@H](CN(C)Cc1ccc3c(c1)OCO3)[C@H](C)CN([C@H](C)CO)S2(=O)=O`, for which the activity change, negative = inhibition was -2.89% (inactive).

As to `C[C@H](CO)N1C[C@H](C)[C@@H](CN(C)S(=O)(=O)c2cn(C)cn2)OCCCC[C@H](C)Oc2ccc(NC(=O)Nc3cccc4ccccc34)cc2C1=O`, the activity change, negative = inhibition was 4.46% (inactive).

With `C[C@@H]1CN([C@H](C)CO)S(=O)(=O)c2ccc(/C=C/c3ccccc3)cc2O[C@H]1CN(C)C`, the activity change, negative = inhibition was 5.46% (inactive).

Consider `O=C(C[C@H]1C[C@@H]2c3cc(NC(=O)C4CCC4)ccc3O[C@@H]2[C@@H](CO)O1)NCCc1ccccc1`, for which the activity change, negative = inhibition was 0.211% (inactive).

The same experiment, now with this note: Clostridioides difficile clinical isolate growth, OD600, 24 h; at 68 µM (top of the series).
Regarding `O=C(C[C@H]1C[C@@H]2c3cc(NC(=O)C4CCC4)ccc3O[C@@H]2[C@@H](CO)O1)NCCN1CCCCC1`, the activity change, negative = inhibition is -0.905% (inactive).

The experiment is the same for the next values; noted with them: Clostridioides difficile clinical isolate growth, OD600, 24 h; at 120 µM (top of the series).
As to `C[C@H]1CCCCO[C@H](CN(C)S(=O)(=O)c2ccc(F)cc2)[C@@H](C)CN([C@@H](C)CO)C(=O)c2cc(NC(=O)Nc3cccc4ccccc34)ccc2O1`, the activity change, negative = inhibition was 21.6% (inactive).

Take `CC(C)C#Cc1ccc2c(c1)O[C@@H](CN(C)Cc1cccnc1)[C@H](C)CN([C@H](C)CO)S2(=O)=O`: the activity change, negative = inhibition is 27.7% (inactive).

Take `C[C@@H]1CN([C@H](C)CO)S(=O)(=O)c2ccc(C#CC3CCCCC3)cc2O[C@@H]1CN(C)Cc1cccnc1`: the activity change, negative = inhibition is 20.4% (inactive).

With `C[C@@H]1CN([C@@H](C)CO)C(=O)c2cccc(NC(=O)Nc3ccc4c(c3)OCO4)c2O[C@@H]1CN(C)C(=O)Nc1cccc2ccccc12`, the activity change, negative = inhibition is 6.09% (inactive).

Regarding `C[C@H](CO)N1C[C@H](C)[C@@H](CN(C)Cc2ccc3c(c2)OCO3)Oc2c(NC(=O)Nc3ccc(C(F)(F)F)cc3)cccc2C1=O`, the activity change, negative = inhibition was 28.9% (inactive).

Take `COc1ccccc1CNC(=O)C[C@H]1C[C@@H]2c3cc(NC(=O)NC4CCCC4)ccc3O[C@@H]2[C@@H](CO)O1`: the activity change, negative = inhibition was -0.476% (inactive).

With `COc1ccc(S(=O)(=O)N(C)C[C@@H]2Oc3ccc(NC(=O)CCCN(C)C)cc3CC(=O)N([C@@H](C)CO)C[C@H]2C)cc1`, the activity change, negative = inhibition is -5.12% (inactive).

`C[C@@H]1CN([C@H](C)CO)C(=O)Cc2cc(NC(=O)C3CCCCC3)ccc2O[C@@H]1CN(C)Cc1ccc(-c2ccccc2)cc1`: the activity change, negative = inhibition was 25.3% (inactive).

`C[C@@H]1CN([C@@H](C)CO)C(=O)c2cc(NC(=O)NC3CCCCC3)ccc2O[C@@H]1CN(C)C(=O)Nc1ccc(F)cc1`: the activity change, negative = inhibition was 58.5% (inactive).

Take `COc1ccc(C(=O)Nc2ccc3c(c2)C(=O)N(C)C[C@H](OC)[C@H](C)CN[C@@H](C)CO3)cc1`: the activity change, negative = inhibition is 8.1% (inactive).

In the case of `C[C@@H]1CN([C@@H](C)CO)C(=O)Cc2cc(NC(=O)CCCN(C)C)ccc2O[C@H]1CN(C)Cc1ccncc1`, the activity change, negative = inhibition was -4.05% (inactive).

Turning to `CO[C@@H]1CN(C)C(=O)c2cc(NC(=O)c3nc4ccccc4s3)ccc2OC[C@@H](C)N(Cc2ccncc2)C[C@@H]1C`, the activity change, negative = inhibition was 14.6% (inactive).

Regarding `CC(C)NC(=O)Nc1ccc2c(c1)CC(=O)N([C@@H](C)CO)C[C@@H](C)[C@@H](CN(C)Cc1ccc(-c3ccccc3)cc1)O2`, the activity change, negative = inhibition is 25% (inactive).

As for `C[C@@H]1CN([C@@H](C)CO)C(=O)c2cccc(NC(=O)Nc3ccc(C(F)(F)F)cc3)c2O[C@@H]1CN(C)S(=O)(=O)c1ccc(Cl)cc1`, the activity change, negative = inhibition is 22.7% (inactive).

Regarding `C[C@H](CO)N1C[C@H](C)[C@@H](CN(C)C(=O)Nc2ccc(C(F)(F)F)cc2)Oc2c(NC(=O)Nc3cccc4ccccc34)cccc2C1=O`, the activity change, negative = inhibition is 36.8% (inactive).

Regarding `C[C@@H]1CN([C@H](C)CO)C(=O)Cc2cc(NC(=O)C3CC3)ccc2O[C@H]1CN(C)Cc1ccc(-c2ccccc2)cc1`, the activity change, negative = inhibition is 18.8% (inactive).

Regarding `C[C@@H]1CN([C@@H](C)CO)C(=O)c2cccc(NC(=O)Nc3ccc4c(c3)OCO4)c2O[C@@H]1CN(C)Cc1ccccc1`, the activity change, negative = inhibition is 19.1% (inactive).

Regarding `O=C(C[C@H]1C[C@@H]2c3cc(NC(=O)C4CCC4)ccc3O[C@@H]2[C@@H](CO)O1)NCc1ccc(Cl)cc1`, the activity change, negative = inhibition was -11.8% (inactive).

`CO[C@H]1CN(C)C(=O)c2cc(NC(=O)c3ccc(-c4ccccc4)cc3)ccc2OC[C@H](C)NC[C@H]1C`: the activity change, negative = inhibition is 25.8% (inactive).

Take `C[C@@H]1CN([C@@H](C)CO)C(=O)Cc2cc(NS(=O)(=O)c3cccs3)ccc2O[C@@H]1CN(C)S(=O)(=O)c1ccc(Cl)cc1`: the activity change, negative = inhibition is 32.8% (inactive).

Consider `C[C@H]1CN([C@@H](C)CO)C(=O)c2cccc(NC(=O)Nc3ccc(C(F)(F)F)cc3)c2O[C@@H]1CN(C)C(=O)NC1CCCCC1`, for which the activity change, negative = inhibition is 19.5% (inactive).

On to `COc1ccccc1S(=O)(=O)N(C)C[C@@H]1Oc2cc(/C=C/c3ccccc3)ccc2S(=O)(=O)N([C@@H](C)CO)C[C@H]1C`, for which the activity change, negative = inhibition was 32.3% (inactive).

On to `C[C@@H]1CN([C@H](C)CO)S(=O)(=O)c2ccc(C#Cc3ccccc3F)cc2O[C@@H]1CN(C)CC1CCOCC1`, for which the activity change, negative = inhibition is 19.4% (inactive).

In the case of `CO[C@@H]1CN(C)C(=O)c2ccc(NC(=O)c3nc4ccccc4s3)cc2OC[C@@H](C)N(Cc2cccnc2)C[C@H]1C`, the activity change, negative = inhibition is 14.9% (inactive).

Regarding `C[C@@H]1CCCCO[C@H](CN(C)S(=O)(=O)c2ccc(F)cc2)[C@H](C)CN([C@H](C)CO)C(=O)c2cc(NC(=O)Nc3cccc4ccccc34)ccc2O1`, the activity change, negative = inhibition was 23.1% (inactive).

In the case of `C[C@H]1CN([C@@H](C)CO)S(=O)(=O)c2ccc(Br)cc2O[C@@H]1CN(C)Cc1cccnc1`, the activity change, negative = inhibition was -0.003% (inactive).

Turning to `COc1ccc(NC(=O)Nc2cccc3c2O[C@H](CN(C)Cc2ccc(Oc4ccccc4)cc2)[C@@H](C)CN([C@H](C)CO)C3=O)cc1`, the activity change, negative = inhibition was 17.1% (inactive).

For the molecule `COc1ccc(CN(C)C[C@@H]2OCCCC[C@@H](C)Oc3ccc(NC(=O)Nc4cccc5ccccc45)cc3C(=O)N([C@H](C)CO)C[C@H]2C)cc1`, the activity change, negative = inhibition is 44.3% (inactive).

For the molecule `C[C@@H]1CN([C@@H](C)CO)C(=O)Cc2cc(N(C)C)ccc2O[C@@H]1CN(C)Cc1ccc(Oc2ccccc2)cc1`, the activity change, negative = inhibition was 12.4% (inactive).

On to `C[C@H]1CN([C@@H](C)CO)C(=O)Cc2cc(NC(=O)CCCN(C)C)ccc2O[C@@H]1CN(C)Cc1ccc(Oc2ccccc2)cc1`, for which the activity change, negative = inhibition is 32.2% (inactive).

With `C[C@@H]1CN([C@H](C)CO)S(=O)(=O)c2ccc(C#CCN(C)C)cc2O[C@@H]1CN(C)Cc1ccc2c(c1)OCO2`, the activity change, negative = inhibition was 0.003% (inactive).

For the molecule `C[C@H]1CN([C@@H](C)CO)C(=O)c2cccc(NC(=O)Nc3ccc4c(c3)OCO4)c2O[C@@H]1CN(C)Cc1ccc(-c2ccccc2)cc1`, the activity change, negative = inhibition was 2.11% (inactive).

For `CC1=CC2(CO)C(=O)[C@]3(CO3)[C@H]1[C@H]1[C@]2(C)C=C(CO)C(=O)[C@]12CO2`, the activity change, negative = inhibition was 10.8% (inactive).

With `C[C@@H]1CN([C@@H](C)CO)C(=O)Cc2cc(NC(=O)CCC(F)(F)F)ccc2O[C@H]1CN(C)Cc1ccc(-c2ccccc2)cc1`, the activity change, negative = inhibition is 37.3% (inactive).

On to `CNC[C@H]1Oc2ccc(N)cc2CC(=O)N([C@@H](C)CO)C[C@H]1C`, for which the activity change, negative = inhibition is -3.55% (inactive).

Consider `C[C@@H]1CN([C@H](C)CO)S(=O)(=O)c2ccc(/C=C/c3ccccc3)cc2O[C@H]1CN(C)C(=O)c1ccncc1`, for which the activity change, negative = inhibition is 17.1% (inactive).

For the molecule `CC(C)CC#Cc1ccc2c(c1)O[C@H](CN(C)Cc1cccnc1)[C@@H](C)CN([C@@H](C)CO)S2(=O)=O`, the activity change, negative = inhibition is 20.5% (inactive).

In the case of `C[C@@H]1CN([C@H](C)CO)C(=O)c2cc(NC(=O)Nc3ccc(F)cc3)ccc2O[C@@H](C)CCCCO[C@H]1CN(C)C(=O)c1ccccc1`, the activity change, negative = inhibition is 41% (inactive).

The same experiment, now with this note: Clostridioides difficile clinical isolate growth, OD600, 24 h; at 135 µM (top of the series).
Regarding `C[C@@H]1CN([C@H](C)CO)C(=O)Cc2cc(NC(=O)C3CC3)ccc2O[C@@H]1CN(C)Cc1ccc(-c2ccccc2)cc1`, the activity change, negative = inhibition is 20.9% (inactive).

Turning to `O=C(C[C@@H]1C[C@@H]2c3cc(NS(=O)(=O)c4ccc(F)cc4)ccc3O[C@@H]2[C@@H](CO)O1)NCc1ccc(-c2ccccc2)cc1`, the activity change, negative = inhibition was 18.3% (inactive).

In the case of `C[C@H](CO)N1C[C@H](C)[C@H](CN(C)Cc2ccc(F)cc2)Oc2ncc(-c3cc4ccccc4o3)cc2C1=O`, the activity change, negative = inhibition was 52.5% (inactive).

For `C[C@@H]1CN([C@@H](C)CO)C(=O)Cc2cc(NS(=O)(=O)c3ccccc3)ccc2O[C@@H]1CN(C)Cc1ccc(-c2ccccc2)cc1`, the activity change, negative = inhibition is 17.3% (inactive).

Regarding `CO[C@H]1CN(C)C(=O)c2cc(NC(=O)c3ccc(-c4ccccc4)cc3)ccc2OC[C@H](C)NC[C@H]1C`, the activity change, negative = inhibition was 102% (inactive).

Consider `O=C(Nc1ccc(-c2ccccc2)cc1)[C@H]1[C@H](CO)[C@H]2Cn3c(cccc3=O)[C@H]2N1CC1CCCCC1`, for which the activity change, negative = inhibition was 32.6% (inactive).

Take `C[C@@H]1CCCCO[C@@H](CN(C)S(=O)(=O)c2ccc(F)cc2)[C@@H](C)CN([C@H](C)CO)C(=O)c2cc(NC(=O)Nc3cccc4ccccc34)ccc2O1`: the activity change, negative = inhibition was 14.6% (inactive).

For `CNC[C@H]1Oc2c(NC(=O)Nc3ccc(F)cc3)cccc2C(=O)N([C@H](C)CO)C[C@@H]1C`, the activity change, negative = inhibition is 0.222% (inactive).

In the case of `CO[C@H]1CN(C)C(=O)c2cc(NC(=O)c3nc4ccccc4s3)ccc2OC[C@H](C)NC[C@H]1C`, the activity change, negative = inhibition is -0.247% (inactive).
